Data from patent US20210355106A1, “NEW AMINO-PYRIMIDONYL-PIPERIDINYL DERIVATIVES, A PROCESS FOR THEIR PREPARATION AND PHARMACEUTICAL COMPOSITIONS CONTAINING THEM” (LES LABORATOIRES SERVIER, priority 2018, published 2021).

Tests used:
USP7 = molecular target: T1, USP7 (Homo sapiens, UniProt Q93009, C315A); assay: Inhibition of USP7 by Fluorescence Intensity (FLINT) readings, Ubiquitin-Rhodamine-110 substrate; assay type: biochemical; conditions: 0.25 nM His-His-USP7 (aa208-560), 60 minutes at 30° C. preincubation; Ki determined from IC50 according to Cer et al.
T1 construct: 0.25 nM His-His-USP7 (aa208-560, |C315A|) was incubated with compound; His-His (N)
In short: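 Kinetic rate of Rhodamine-110 release from ubiquitin substrate (50 nM or 4 μM), read every 3 min for 21 min, after 60 min, 30 °C preincubation of 0.25 nM USP7 catalytic domain C315A with compound. Bicine pH 8.0 buffer, 10% DMSO; 11-point IC50 vs DMSO and no-enzyme controls, converted to Ki.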

[1] = test system: Z138 mantle cell lymphoma tumour cell lines; assay: In vitro cytotoxicity, MTT assay; assay type: cell-based; conditions: Homo sapiens, Z-138; Z138 cells, exposed to the test compounds for 96 hours
In short: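 MTT viability read-out: after 96 hours of compound treatment, Z138 mantle cell lymphoma cells received MTT for 4 hours, and formazan production was quantified by absorbance at 540 nm.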

T1 sequence (Q93009 208-560 C315A): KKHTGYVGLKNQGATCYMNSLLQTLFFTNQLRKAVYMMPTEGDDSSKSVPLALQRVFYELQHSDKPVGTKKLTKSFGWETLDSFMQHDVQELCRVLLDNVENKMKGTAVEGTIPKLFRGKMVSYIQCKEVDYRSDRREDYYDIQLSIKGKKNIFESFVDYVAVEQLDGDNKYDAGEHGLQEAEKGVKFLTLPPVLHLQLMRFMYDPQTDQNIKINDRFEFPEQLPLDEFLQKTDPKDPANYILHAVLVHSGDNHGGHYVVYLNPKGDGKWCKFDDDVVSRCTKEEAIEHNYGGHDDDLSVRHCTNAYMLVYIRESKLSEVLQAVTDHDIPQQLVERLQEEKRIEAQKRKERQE

Row | Ki (USP7) | SMILES | IC50 [1]
1 | 37.2 nM | Cc1cc(C)nc(CN2CC[C@@H](C(=O)N3CC[C@](O)(Cn4cnc(Oc5ccc(F)cc5)c(N)c4=O)C(F)(F)C3)[C@H](c3ccccc3)C2)n1 [Example 206, 5-amino-3-[[(4S)-1-[(3R,4R)-1-[(4,6-dimethylpyrimidin-2-yl)methyl]-3-phenyl-piperidine-4-carbonyl]-3,3-difluoro-4-hydroxy-4-piperidyl]methyl]-6(4-fluorophenoxy)pyrimidin-4-one] | 20.5 nM
2 | 27.4 nM | Cc1cncc(CN2CC[C@@H](C(=O)N3CC[C@](O)(Cn4cnc(Oc5ccc(F)cc5)c(N)c4=O)C(F)(F)C3)[C@H](c3ccccc3)C2)n1 [Example 207, 5-amino-3-[[(4S)-3,3-difluoro-4-hydroxy-1-[(3R,4R)-1-[(6-methylpyrazin-2-yl)methyl]-3-phenyl-piperidine-4-carbonyl]-4-piperidyl]methyl]-6-(4-fluorophenoxy)pyrimidin-4-one] | 11.8 nM
3 | 0.215 nM | Cc1ccc(-c2nc(C)c(C(=O)N3CC[C@@H](C(=O)N4CC[C@](O)(Cn5cnc(Oc6ccc(CN)cc6)c(N)c5=O)C(F)(F)C4)[C@H](c4ccccc4)C3)s2)cn1 [Example 210] | 1.85 nM
4 | 27.7 nM | Cc1nccnc1CN1CC[C@@H](C(=O)N2CC[C@](O)(Cn3cnc(Oc4ccc(F)cc4)c(N)c3=O)C(F)(F)C2)[C@H](c2ccccc2)C1 [Example 211, 5-amino-3-[[(4S)-3,3-difluoro-4-hydroxy-1-[(3R,4R)-1-[(3-methylpyrazin-2-yl)methyl]-3-phenyl-piperidine-4-carbonyl]-4-piperidyl]methyl]-4(4-fluorophenoxy)pyrimidin-4-one] | 24.9 nM
5 | 34.1 nM | Nc1c(Oc2ccc(F)cc2)ncn(C[C@@]2(O)CCN(C(=O)[C@@H]3CCN(Cc4ccncn4)C[C@H]3c3ccccc3)CC2(F)F)c1=O [Example 212, 5-amino-3-[[(4S)-3,3-difluoro-4-hydroxy-1-[(3R,4R)-3-phenyl-1-(pyrimidin-4-ylmethyl)piperidine-4-carbonyl]-4-piperidyl]methyl]-6-(4-fluorophenoxy)pyrimidin-4-one] | 21.4 nM
6 | 36.4 nM | COc1cc(Oc2ncn(C[C@@]3(O)CCN(C(=O)[C@@H]4CCN(Cc5cnccn5)C[C@H]4c4ccccc4)CC3(F)F)c(=O)c2N)ccc1F [Example 213, 5-amino-3-[[(4S)-3,3-difluoro-4-hydroxy-1-[(3R,4R)-3-phenyl-1-(pyrazin-2-ylmethyl)piperidine-4-carbonyl]-4-piperidyl]methyl]-6-(4-fluoro-3-methoxy-phenoxy)pyrimidin-4-one] | 15.6 nM
7 | 48.3 nM | COc1cc(Oc2ncn(C[C@@]3(O)CCN(C(=O)[C@@H]4CCN(Cc5cccnn5)C[C@H]4c4ccccc4)CC3(F)F)c(=O)c2N)ccc1F [Example 214] | 31.3 nM
8 | 54.1 nM | COc1cc(Oc2ncn(C[C@@]3(O)CCN(C(=O)[C@@H]4CCN(Cc5ncccn5)C[C@H]4c4ccccc4)CC3(F)F)c(=O)c2N)ccc1F [Example 215, 5-amino-3-[[(4S)-3,3-difluoro-4-hydroxy-1-[(3R,4R)-3-phenyl-1-(pyrimidin-2-ylmethyl)piperidine-4-carbonyl]-4-piperidyl]methyl]-6-(4-fluoro-3-methoxy-phenoxy)pyrimidin-4-one] | 24.6 nM
9 | 25.7 nM | COc1cc(Oc2ncn(C[C@@]3(O)CCN(C(=O)[C@@H]4CCN(Cc5nccc(C)n5)C[C@H]4c4ccccc4)CC3(F)F)c(=O)c2N)ccc1F [Example 216] | 19.1 nM
10 | 42.6 nM | COc1cc(Oc2ncn(C[C@@]3(O)CCN(C(=O)[C@@H]4CCN(Cc5nc(C)cc(C)n5)C[C@H]4c4ccccc4)CC3(F)F)c(=O)c2N)ccc1F [Example 217] | 23.1 nM
11 | 30.1 nM | COc1cc(Oc2ncn(C[C@@]3(O)CCN(C(=O)[C@@H]4CCN(Cc5cncc(C)n5)C[C@H]4c4ccccc4)CC3(F)F)c(=O)c2N)ccc1F [Example 218, 5-amino-3-[[(4S)-3,3-difluoro-4-hydroxy-1-[(3R,4R)-1-[(6-methylpyrazin-2-yl)methyl]-3-phenyl-piperidine-4-carbonyl]-4-piperidyl]methyl]-6-(4-fluoro-3-methoxy-phenoxy)pyrimidin-4-one] | 11.5 nM
12 | 30.3 nM | COc1cc(Oc2ncn(C[C@@]3(O)CCN(C(=O)[C@@H]4CCN(Cc5nccnc5C)C[C@H]4c4ccccc4)CC3(F)F)c(=O)c2N)ccc1F [Example 219, 5-amino-3-[[(4S)-3,3-difluoro-4-hydroxy-1-[(3R,4R)-1-[(3-methylpyrazin-2-yl)methyl]-3-phenyl-piperidine-4-carbonyl]-4-piperidyl]methyl]-6-(4-fluoro-3-methoxy-phenoxy)pyrimidin-4-one] | 23.4 nM
13 | 35.5 nM | Cc1cnc(CN2CC[C@@H](C(=O)N3CC[C@](O)(Cn4cnc(Oc5ccc(Cl)cc5)c(N)c4=O)C(F)(F)C3)[C@H](c3ccccc3)C2)cn1 [Example 221, 5-amino-6-(4-chlorophenoxy)-3-[[(4S)-3,3-difluoro-4-hydroxy-1-[(3R,4R)-1-[(5-methylpyrazin-2-yl)methyl]-3-phenyl-piperidine-4-carbonyl]-4-piperidyl]methyl]pyrimidin-4-one] | 10.2 nM
14 | 0.558 nM | NCc1ccc(Oc2ncn(C[C@@]3(O)CCN(C(=O)[C@@H]4CCN(C(=O)c5cc(Cl)cc(Cl)c5)C[C@H]4c4ccccc4)CC3(F)F)c(=O)c2N)cc1 [Example 222, 5-amino-6-[4-(aminomethyl)phenoxy]-3-[[(4S)-1-[(3R,4R)-1-(3,5-dichlorobenzoyl)-3-phenyl-piperidine-4-carbonyl]-3,3-difluoro-4-hydroxy-4-piperidyl]methyl]pyrimidin-4-one] | 74.2 nM
15 | 4.2 nM | Cc1ccc(-c2nc(C)c(C(=O)N3CC[C@@H](C(=O)N4CCC(O)(Cn5cnc(Oc6ccc(CNC(=O)OC(C)(C)C)cc6)c(N)c5=O)CC4)[C@H](c4ccccc4)C3)s2)cn1 [Example 223, tert-butyl N-[[4-[5-amino-1-[[4-hydroxy-1-[(3R,4R)-1-[4-methyl-2-(6-methyl-3-pyridyl)thiazole-5-carbonyl]-3-phenyl-piperidine-4-carbonyl]-4-piperidyl]methyl]-6-oxo-pyrimidin-4-yl]oxyphenyl]methyl]carbamate] | 73.2 nM
